Assay results reported in PubChem BioAssay AID248 (DTP/NCI, 2004).
Values joined by “and” are separate entries in the source; they are usually repeats but may differ in a detail not shown here. Equal values may be shown once. Inconclusive results and toxic doses are left out. Rule as the data show it: active = T/C of 150% or more; inactive = T/C below 125%.

System: L1210 leukemia ip in BDF1 mice, survival T/C
Experiment: NCI In Vivo Anticancer Drug Screen. Data for tumor model L1210 Leukemia (intraperitoneal) in B6D2F1 (BDF1) mice
Conditions: endpoint: mean survival time, higher = longer survival
Procedure, shortened: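 Mice bearing the transplanted tumor received compound or vehicle. Survival of the treated group was divided by that of the vehicle-treated control group to give the ratio.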

[1] = dose: 100.0 mg/kg/injection, schedule: Q04DX002 (ip), vehicle: saline with Tween-80
[2] = dose: 100.0 mg/kg/injection, schedule: Q04DX003 (ip), vehicle: saline with Tween-80
[3] = dose: 200.0 mg/kg/injection, schedule: Q04DX002 (ip), vehicle: saline with Tween-80
[4] = dose: 200.0 mg/kg/injection, schedule: Q04DX003 (ip), vehicle: saline with Tween-80
[5] = dose: 400.0 mg/kg/injection, schedule: Q04DX002 (ip), vehicle: saline with Tween-80
[6] = dose: 100.0 mg/kg/injection, schedule: Q01DX001 (ip), vehicle: saline
[7] = dose: 200.0 mg/kg/injection, schedule: Q01DX001 (ip), vehicle: saline
[8] = dose: 400.0 mg/kg/injection, schedule: Q04DX003 (ip), vehicle: saline with Tween-80
[9] = dose: 100.0 mg/kg/injection, schedule: Q01DX009 (ip), vehicle: Klucel (hydroxypropylcellulose) (HPC)
[10] = dose: 200.0 mg/kg/injection, schedule: Q01DX009 (ip), vehicle: Klucel (hydroxypropylcellulose) (HPC)
[11] = dose: 400.0 mg/kg/injection, schedule: Q01DX009 (ip), vehicle: Klucel (hydroxypropylcellulose) (HPC)
[12] = dose: 100.0 mg/kg/injection, schedule: Q04DX003 (ip), vehicle: Klucel (hydroxypropylcellulose) (HPC)
[13] = dose: 200.0 mg/kg/injection, schedule: Q04DX003 (ip), vehicle: Klucel (hydroxypropylcellulose) (HPC)
[14] = dose: 400.0 mg/kg/injection, schedule: Q04DX003 (ip), vehicle: Klucel (hydroxypropylcellulose) (HPC)
[15] = dose: 100.0 mg/kg/injection, schedule: Q04DX003 (ip), vehicle: saline
[16] = dose: 200.0 mg/kg/injection, schedule: Q04DX003 (ip), vehicle: saline
[17] = dose: 400.0 mg/kg/injection, schedule: Q04DX003 (ip), vehicle: saline
[18] = dose: 100.0 mg/kg/injection, schedule: Q01DX001 (ip), vehicle: carboxymethylcellulose (CMC)
[19] = dose: 200.0 mg/kg/injection, schedule: Q01DX001 (ip), vehicle: carboxymethylcellulose (CMC)

Measured: T/C

O=C(Nc1cccc(F)c1)N(C1CCCCC1)C1CCCCC1
inactive: dose: 6.25 mg/kg/injection, schedule: Q01DX009 (ip), vehicle: gum acacia 96 % of control | dose: 12.5 mg/kg/injection, schedule: Q01DX009 (ip), vehicle: gum acacia 100 % of control | dose: 50.0 mg/kg/injection, schedule: Q01DX009 (ip), vehicle: gum acacia 89 % of control | dose: 400.0 mg/kg/injection, schedule: Q01DX009 (ip), vehicle: gum acacia 91 % of control

Cc1ccc(C(C)C)cc1NC(=O)/C=C/c1ccccc1
inactive: dose: 6.25 mg/kg/injection, schedule: Q01DX009 (ip), vehicle: saline with Tween-80 97 % of control and 98 % of control | dose: 12.5 mg/kg/injection, schedule: Q01DX009 (ip), vehicle: saline with Tween-80 97 % of control and 98 % of control | dose: 25.0 mg/kg/injection, schedule: Q04DX003 (ip), vehicle: saline with Tween-80 88 % of control | dose: 50.0 mg/kg/injection, schedule: Q01DX001 (ip), vehicle: saline with Tween-80 95 % of control | dose: 50.0 mg/kg/injection, schedule: Q04DX003 (ip), vehicle: saline with Tween-80 88 % of control | dose: 100.0 mg/kg/injection, schedule: Q01DX001 (ip), vehicle: saline with Tween-80 94 % of control | [1] 93 % of control and 96 % of control | [2] 88 % of control | dose: 200.0 mg/kg/injection, schedule: Q01DX001 (ip), vehicle: saline with Tween-80 86 % of control and 87 % of control | [3] 88 % of control and 90 % of control | [4] 89 % of control | dose: 400.0 mg/kg/injection, schedule: Q01DX001 (ip), vehicle: saline with Tween-80 94 % of control and 108 % of control | [5] 96 % of control and 88 % of control

COCCOC(=O)c1ccc(C(N)=NC2CCCCC2)cc1
inactive: [6] 96 % of control | [7] 97 % of control

O=C(N/N=C\c1ccc(Cl)cc1)c1ccccc1
inactive: [2] 99 % of control | [4] 100 % of control

CCCNC(=O)Oc1ccccc1C(=O)NCO
inactive: dose: 100.0 mg/kg/injection, schedule: Q01DX009 (ip), vehicle: other 101 % of control | dose: 200.0 mg/kg/injection, schedule: Q01DX009 (ip), vehicle: other 96 % of control

O=C1OC(=O)C2CC=CCC12 (stereo not given)
inactive: [2] 106 % of control | [4] 106 % of control | [8] 98 % of control

CCOC(=O)c1ccc(NC(=O)Nc2cc(C(F)(F)F)ccc2Cl)cc1
inactive: [9] 100 % of control | [10] 104 % of control | [11] 95 % of control

CC(C)(O)C(=O)NCNC(=O)C(C)(C)O
inactive: [9] 102 % of control | [12] 103 % of control | [10] 97 % of control | [13] 103 % of control | [11] 97 % of control | [14] 106 % of control

CSc1cc(=O)n2c3ccccc3c3ccnc1c32
inactive: dose: 5.0 mg/kg/injection, schedule: Q01DX001 (ip), vehicle: saline 98 % of control | dose: 10.0 mg/kg/injection, schedule: Q01DX001 (ip), vehicle: saline 98 % of control | dose: 20.0 mg/kg/injection, schedule: Q01DX001 (ip), vehicle: saline 100 % of control | dose: 40.0 mg/kg/injection, schedule: Q01DX001 (ip), vehicle: saline 98 % of control | dose: 80.0 mg/kg/injection, schedule: Q01DX001 (ip), vehicle: saline 100 % of control | [6] 120 % of control

CN(C)c1ccc(/C=[N+](\[O-])c2cccc(Cl)c2)cc1
inactive: dose: 100.0 mg/kg/injection, schedule: Q01DX001 (ip), vehicle: Klucel (hydroxypropylcellulose) (HPC) 95 % of control | [12] 102 % of control | dose: 200.0 mg/kg/injection, schedule: Q01DX001 (ip), vehicle: Klucel (hydroxypropylcellulose) (HPC) 97 % of control | [13] 100 % of control | [14] 107 % of control

CCCC(=O)c1cc(O)c(O)cc1O
inactive: dose: 50.0 mg/kg/injection, schedule: Q01DX009 (ip), vehicle: saline with Tween-80 96 % of control | [2] 95 % of control | [4] 105 % of control

ClCC1CC2c3ccccc3C1c1ccccc12 (stereo not given)
inactive: [15] 94 % of control | [16] 87 % of control | [17] 90 % of control

Fc1ccc2c(c1)CC(CBr)O2 (stereo not given)
inactive: dose: 50.0 mg/kg/injection, schedule: Q01DX001 (ip), vehicle: saline 100 % of control | [6] 105 % of control | [7] 103 % of control | dose: 400.0 mg/kg/injection, schedule: Q01DX001 (ip), vehicle: saline 103 % of control

CCOC(=O)NC1CCC2c3ccccc3C([N+](=O)[O-])(C1)c1ccccc12 (stereo not given)
inactive: [2] 106 % of control | [4] 95 % of control | [8] 90 % of control

CCCCCCCCCCCCCCCC(=O)Nc1ccc(Cl)c(Cl)c1
inactive: dose: 50.0 mg/kg/injection, schedule: Q04DX003 (ip), vehicle: carboxymethylcellulose (CMC) 87 % of control | [18] 89 % of control | dose: 100.0 mg/kg/injection, schedule: Q01DX009 (ip), vehicle: carboxymethylcellulose (CMC) 102 % of control and 89 % of control | dose: 100.0 mg/kg/injection, schedule: Q04DX002 (ip), vehicle: other 92 % of control and 101 % of control | dose: 100.0 mg/kg/injection, schedule: Q04DX003 (ip), vehicle: carboxymethylcellulose (CMC) 95 % of control | [19] 90 % of control | dose: 200.0 mg/kg/injection, schedule: Q01DX009 (ip), vehicle: carboxymethylcellulose (CMC) 96 % of control and 86 % of control | dose: 200.0 mg/kg/injection, schedule: Q04DX002 (ip), vehicle: other 93 % of control and 89 % of control | dose: 200.0 mg/kg/injection, schedule: Q04DX003 (ip), vehicle: carboxymethylcellulose (CMC) 87 % of control | dose: 400.0 mg/kg/injection, schedule: Q01DX009 (ip), vehicle: carboxymethylcellulose (CMC) 93 % of control and 86 % of control | dose: 400.0 mg/kg/injection, schedule: Q04DX002 (ip), vehicle: other 93 % of control and 94 % of control

N#CCCNC(CO)C(=O)O (stereo not given)
inactive: [18] 94 % of control | [19] 92 % of control | dose: 400.0 mg/kg/injection, schedule: Q01DX001 (ip), vehicle: carboxymethylcellulose (CMC) 89 % of control

O=C(O)CSC(SCC(=O)O)c1ccc(Cl)cc1Cl
inactive: dose: 100.0 mg/kg/injection, schedule: Q04DX002 (ip), vehicle: saline 94 % of control | dose: 200.0 mg/kg/injection, schedule: Q04DX002 (ip), vehicle: saline 98 % of control | dose: 400.0 mg/kg/injection, schedule: Q04DX002 (ip), vehicle: saline 119 % of control

O=C1C=C(O)C(c2ccccc2)=CC1=O
inactive: dose: 100.0 mg/kg/injection, schedule: Q01DX001 (ip), vehicle: water 104 % of control | dose: 200.0 mg/kg/injection, schedule: Q01DX001 (ip), vehicle: water 119 % of control

CCCC(P(c1ccccc1)c1ccccc1)P(=O)(c1ccccc1)c1ccccc1 (stereo not given)
inactive: [1] 94 % of control | [3] 94 % of control | [5] 94 % of control

O=CN=C(CS(=O)(=O)O)c1ccccc1
inactive: dose: 50.0 mg/kg/injection, schedule: Q04DX003 (ip), vehicle: saline 103 % of control | [15] 108 % of control | [16] 100 % of control | [17] 102 % of control
